Inhibition and Ki data for 24 compounds are collected here from US10358435B2, “Triazolyl pyrimidinone compounds as PDE2 inhibitors” (Merck Sharp & Dohme Corp., priority 2015, dated 2019).

One may read the inhibition as the change of the read-out against control, counted positive when it falls. Broadly, the Ki is a measure of affinity in units of concentration, obtained from inhibition or displacement.

Sequence of human PDE2A1 (O00408 other isoform, or with tags, fused parts or gaps): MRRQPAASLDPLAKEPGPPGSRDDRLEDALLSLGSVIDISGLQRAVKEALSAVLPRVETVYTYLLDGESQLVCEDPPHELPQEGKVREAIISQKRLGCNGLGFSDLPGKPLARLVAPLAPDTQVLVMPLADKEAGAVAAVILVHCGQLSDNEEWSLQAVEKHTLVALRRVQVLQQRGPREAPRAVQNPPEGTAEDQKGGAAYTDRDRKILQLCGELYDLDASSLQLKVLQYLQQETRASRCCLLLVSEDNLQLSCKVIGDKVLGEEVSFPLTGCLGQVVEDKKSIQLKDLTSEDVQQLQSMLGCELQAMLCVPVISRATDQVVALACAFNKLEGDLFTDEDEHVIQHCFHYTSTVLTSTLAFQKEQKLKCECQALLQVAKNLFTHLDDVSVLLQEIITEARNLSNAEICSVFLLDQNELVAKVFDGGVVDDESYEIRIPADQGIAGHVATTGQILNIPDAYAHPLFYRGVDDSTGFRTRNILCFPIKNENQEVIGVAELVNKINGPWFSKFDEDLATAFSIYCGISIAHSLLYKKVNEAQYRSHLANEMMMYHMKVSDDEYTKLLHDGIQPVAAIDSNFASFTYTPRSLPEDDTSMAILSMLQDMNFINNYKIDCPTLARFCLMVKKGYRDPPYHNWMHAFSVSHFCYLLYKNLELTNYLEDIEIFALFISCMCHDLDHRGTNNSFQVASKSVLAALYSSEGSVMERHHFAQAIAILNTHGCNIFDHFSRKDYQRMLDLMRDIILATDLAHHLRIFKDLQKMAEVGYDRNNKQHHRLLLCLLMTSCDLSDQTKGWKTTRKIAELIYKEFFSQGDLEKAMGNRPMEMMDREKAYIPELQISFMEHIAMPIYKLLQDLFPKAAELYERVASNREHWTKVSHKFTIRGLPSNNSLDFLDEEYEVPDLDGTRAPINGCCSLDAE

The first experiment concerns the target human PDE2A1 (Homo sapiens (Human), UniProt O00408). Briefly: IMAP fluorescence polarization assay, human PDE2A1 (PDE selectivity panel).
Conditions: not given
The class given is biochemical. The method, then:
The activity of the compounds in accordance with the present invention as PDE2 inhibitors may be readily determined using a fluorescence polarization (FP) methodology (Huang, W., et al., J. Biomol Screen, 2002, 7: 215).
Dose-inhibition profiles for each compound were characterized by fitting the mP data to a four-parameter equation given below.
Selectivity for PDE2, as compared to other PDE families, was assessed using the IMAP® technology. Human PDE10A2 enzyme was prepared from cytosolic fractions of transiently transfected HEK cells. All other PDE's were GST Tag human enzyme expressed in insect cells and were obtained from BPS Bioscience (San Diego, Calif.): PDE1A (Cat#60010), human PDE2A1 (Cat#60020), PDE3A (Cat#60030), PDE4A1A (Cat#60040), PDE5A1 (Cat#60050), PDE6C (Cat#60060), PDE7A (Cat#60070), PDE8A1 (Cat#60080), PDE9A2 (Cat#60090), PDE11A4 (Cat#60110).
Assays for PDE 1 through 11 were performed in parallel at room temperature in 384-well microtiter plates with an incubation volume of 20.2 μL. Solutions of test compounds were prepared in DMSO and serially diluted with DMSO to yield 30 μL of each of ten solutions differing by 3-fold in concentration, at 32 serial dilutions per plate. […] A Labcyte POD 810 (Labcyte, Sunnyvale, Calif.) was used to dispense 200 nL from each well of the titration plate to make eleven copies of the assay plate for each titration, one copy for each PDE enzyme. A solution of each enzyme (dilution from aliquots, sufficient to produce 20% substrate conversion) and a separate solution of FAM-labeled cAMP or FAM-labeled cGMP from Molecular Devices (Sunnyvale, Calif., product # R7506 or cGMP#R7508), at a final concentration of 50 nM were made in the assay buffer (10 mM Tris HCl, pH 7.2, 10 mM MgCl2, 0.05% NaN3 0.01% Tween-20, and 1 mM DTT). Note that the substrate for PDE2 is 50 nM FAM cAMP containing 1000 nM of cGMP. The enzyme and the substrate were then added to the assay plates in two consecutive additions of 10 μL and then shaken to mix. The reaction was allowed to proceed at room temperature for 60 minutes. A binding solution was then made from the kit components, comprised of 80% Solution A, 20% Solution B and binding reagent at a volume of 1/600 the total binding solution. The enzymatic reaction was stopped by addition of 60 μL of the binding solution to each well of the assay plate. The plates were sealed and shaken for 10 seconds. The plates were incubated at room temperature for one hour, then the parallel and perpendicular fluorescence was measured using a Tecan Genios Pro plate reader (Tecan, Switzerland). The apparent inhibition constants for the compounds against all 11 PDE's was determined from the parallel and perpendicular fluorescent readings as described for PDE10 FP assay using the following apparent KM values for each enzyme and substrate combination: PDE1A (FAM cGMP) 70 nM, human PDE2A1 (FAM cAMP) 10,000 nM, PDE3A (FAM cAMP) 50 nM, PDE4A1A (FAM cAMP) 1500 nM, PDE5A1 (FAM cGMP) 400 nM, PDE6C (FAM cGMP) 700 nM, PDE7A (FAM cAMP) 150 nM, PDE8A1 (FAM cAMP) 50 nM, PDE9A2 (FAM cGMP) 60 nM, PDE10A2 (FAM cAMP) 150 nM, PDE11A4 (FAM cAMP) 1000 nM. The intrinsic PDE2 inhibitory activity of a compound which may be used in accordance with the present invention may be determined by these assays.
On the technique in general: Polarisation of emitted light reports the rotation of a fluorescent probe.
On to `Cc1nc(-c2nnn([C@H](C)c3ccc(C(F)(F)F)cc3Cl)c2C)cc(=O)[nH]1` (mixture of isomers) [Example 44, (R)- and (S)-6-(1-(1-(2-Chloro-4-(trifluoromethyl)phenyl)-ethyl)-5-methyl-1H-1,2,3-triazol-4-yl)-2-methylpyrimidin-4(3H)-one], for which the inhibition at 3 µM worked out at 44%.
Same read-out and setting: under `Cc1nc(-c2nnn3c2CCC[C@H]3c2ccc(C(F)(F)F)cc2)cc(=O)[nH]1` (mixture of isomers) [Example 47, (R)- and (S)-2-Methyl-6-(7-(4-(trifluoromethyl)phenyl)-4,5,6,7-tetrahydro-[1,2,3]triazolo[1,5-a]pyridin-3-yl)pyrimidin-4(3H)-one] stands 48%; under `Cc1nc(-c2nnc3n2CCC[C@H]3c2ccc(C(F)(F)F)cc2)cc(=O)[nH]1` (mixture of isomers) [Example 71, (R)- and (S)-2-Methyl-6-(8-(4-(trifluoromethyl)phenyl)-5,6,7,8-tetrahydro-[1,2,4]triazolo[4,3-a]pyridin-3-yl)pyrimidin-4(3H)-one], 27%.

Still in this experiment, the particulars now being: FAM cAMP 50 nM with 1000 nM cGMP.
On to `Cc1nc(-c2cnn([C@H](C)c3ccc(C(F)(F)F)cc3Cl)n2)cc(=O)[nH]1` (single isomer, unassigned) [Example 1], for which the Ki was determined as 0.0363 µM.
For `Cc1nc(-c2cnn([C@H](C)c3ccc(C(F)(F)F)cc3Cl)n2)cc(=O)[nH]1` (single isomer, unassigned) [Example 2], the Ki was roughly 1.3 µM.
On to `Cc1nc(-c2cnn(C(C)c3ccc(C(F)(F)F)cc3F)n2)cc(=O)[nH]1` (single isomer, unassigned) [Example 3, (R)- or (S)-6-(2-(1-(2-fluoro-4-(trifluoromethyl)phenyl)ethyl)-2H-1,2,3-triazol-4-yl)-2-metylpyrimidin-4(3H)-one], for which the Ki stood at 0.112 µM.
Take `Cc1nc(-c2cnn(C(C)c3ccc(C(F)(F)F)cc3F)n2)cc(=O)[nH]1` (single isomer, unassigned) [Example 4, (S)- or (R)-6-(2-(1-(2-fluoro-4-(trifluoromethyl)phenyl)ethyl)-2H-1,2,3-triazol-4-yl)-2-metylpyrimidin-4(3H)-one]: the Ki is 1.03 µM.
Take `Cc1nc(-c2cnn(C(C)c3ccc(C(F)(F)F)cc3C)n2)cc(=O)[nH]1` (single isomer, unassigned) [Example 5, (R)- or (S)-2-methyl-6-(2-(1-(2-methyl-4-(trifluoromethyl)phenyl)ethyl)-2H-1,2,3-triazol-4-yl)pyrimidin-4(3H)-one]: the Ki turned out to be 0.0522 µM.
In the case of `Cc1nc(-c2cnn(C(C)c3ccc(C(F)(F)F)cc3C)n2)cc(=O)[nH]1` (single isomer, unassigned) [Example 6, (S)- or (R)-2-methyl-6-(2-(1-(2-methyl-4-(trifluoromethyl)phenyl)ethyl)-2H-1,2,3-triazol-4-yl)pyrimidin-4(3H)-one], the Ki was roughly 1.9 µM.
The same measure, in the same setting: the value for `CCc1ccc(C(C)n2ncc(-c3cc(=O)[nH]c(C)n3)n2)c(Cl)c1` (single isomer, unassigned) [Example 7, (R)- or (S)-6-(2-(1-(2-chloro-4-ethylphenyl)ethyl)-2H-1,2,3-triazol-4-yl)-2-methylpyrimidin-4(3H)-one] was 0.0609 µM.
The same measure, in the same setting: under `CCc1ccc(C(C)n2ncc(-c3cc(=O)[nH]c(C)n3)n2)c(Cl)c1` (single isomer, unassigned) [Example 8, (S)- or (R)-6-(2-(1-(2-chloro-4-ethylphenyl)ethyl)-2H-1,2,3-triazol-4-yl)-2-methylpyrimidin-4(3H)-one] stands roughly 1.55 µM; under `Cc1nc(-c2cn([C@H](C)c3ccc(C(F)(F)F)cc3C)nn2)cc(=O)[nH]1` (single isomer, unassigned) [Example 10], 0.132 µM.
With `CCc1ccc(C(C)n2cc(-c3cc(=O)[nH]c(C)n3)nn2)c(Cl)c1` (single isomer, unassigned) [Example 20, (S)- or (R)-6-(1-(1-(2-chloro-4-ethylphenyl)ethyl)-1H-1,2,3-triazol-4-yl)-2-methylpyrimidin-4(3H)-one], the Ki came to 0.0467 µM.
The same measure, in the same setting: under `Cc1nc(-c2cn(C(C)c3ccc(C(F)(F)F)c(F)c3F)nn2)cc(=O)[nH]1` (single isomer, unassigned) [Example 22, (S)- or (R)-6-(1-(1-(2,3-difluoro-4-(trifluoromethyl)phenyl)ethyl)-1H-1,2,3-triazol-4-yl)-2-methylpyrimidin-4(3H)-one] stands 0.0177 µM; under `Cc1nc(-c2cn(C(C)c3cc(F)c(C(F)(F)F)cc3F)nn2)cc(=O)[nH]1` (single isomer, unassigned) [Example 23, (R)- or (S)-6-(1-(1-(2,5-difluoro-4-(triufluoromethyl)phenyl)ethyl)-1H-1,2,3-triazol-4-yl)-2-methylpyrimidin-4(3H)-one], 0.203 µM.
As to `Cc1nc(-c2cn(C(C)c3cc(F)c(C(F)(F)F)cc3F)nn2)cc(=O)[nH]1` (single isomer, unassigned) [Example 24, (S)- or (R)-6-(1-(1-(2,5-difluoro-4-(triufluoromethyl)phenyl)ethyl)-1H-1,2,3-triazol-4-yl)-2-methylpyrimidin-4(3H)-one], the Ki turned out to be 0.0388 µM.
Still for that read-out and setting: the value for `Cc1nc(-c2cn(C(C)c3ccc(C4CC4)cc3Cl)nn2)cc(=O)[nH]1` (single isomer, unassigned) [Example 25, (R)- or (S)-6-(1-(1-(2-chloro-4-cyclopropylphenyl)ethyl)-1H-1,2,3-triazol-4-yl)-2-methylpyrimidin-4(3H)-one] was 0.0584 µM; that for `Cc1nc(-c2cn(C(C)c3ccc(C4CC4)cc3Cl)nn2)cc(=O)[nH]1` (single isomer, unassigned) [Example 26, (S)- or (R)-6-(1-(1-(2-chloro-4-cyclopropylphenyl)ethyl)-1H-1,2,3-triazol-4-yl)-2-methylpyrimidin-4(3H)-one] was 0.0032 µM.
On to `Cc1nc(-c2cn(C(C)c3ccc(C(F)(F)F)cc3F)nn2)cc(=O)[nH]1` (single isomer, unassigned) [Example 27, (R)- or (S)-6-(1-(1-(2-fluoro-4-(trifluoromethyl)phenyl)ethyl)-1H-1,2,3-triazol-4-yl)-2-methylpyrimidin-4(3H)-one], for which the Ki is 0.0466 µM.
The same measure, in the same setting: under `Cc1nc(-c2cn([C@@H](C)c3ccc(C(F)(F)F)cc3Cl)nn2)cc(=O)[nH]1` (single isomer, unassigned) [Example 35] stands 0.0415 µM; under `Cc1nc(-c2cn([C@@H](C)c3ccc(C(F)(F)F)cc3Cl)nn2)cc(=O)[nH]1` (single isomer, unassigned) [Example 36], 0.0017 µM; under `CCC(c1ccc(C(F)(F)F)cc1F)n1cc(-c2cc(=O)[nH]c(C)n2)nn1` (single isomer, unassigned) [Example 37, (R)- or (S)-6-(1-(1-(2-fluoro-4-(trifluoromethyl)phenyl)propyl-1H-1,2,3-triazol-4-yl)-2-methylpyrimidin-4(3H)-one], 0.011 µM.
For the compound `CCC(c1ccc(C(F)(F)F)cc1F)n1cc(-c2cc(=O)[nH]c(C)n2)nn1` (single isomer, unassigned) [Example 38, (S)- or (R)-6-(1-(1-(2-fluoro-4-(trifluoromethyl)phenyl)propyl)-1H-1,2,3-triazol-4-yl)-2-methylpyrimidin-4(3H)-one], the Ki was found to be 0.0105 µM.
On to `Cc1nc(-c2cn(C(c3ccc(C(F)(F)F)cc3F)C(C)C)nn2)cc(=O)[nH]1` (single isomer, unassigned) [Example 39, (R)- or (S)-6-(1-(1-(2-fluoro-4-(trifluoromethyl)phenyl)-2-methylpropyl)-1H-1,2,3-triazol-4-yl)-2-methylpyrimidin-4(3H)-one], for which the Ki is 0.0072 µM.
